Assay results published in patent US9539272B2, “HDAC 6 inhibitor-based methods for treating cancer” (SLOAN-KETTERING INSTITUTE FOR CANCER RESEARCH, priority 2009, dated 2017).

Legend:
[1] = test system: acetylated tubulin and acetylated histone H3 in A549 cells; details: 24 hrs, tubacin 0.2, 2 or 20 μM; cited from earlier work
LNCaP cells = test: Cell growth and viability by trypan blue exclusion, LNCaP; details: LNCaP, 8 μM nil-tubacin alone
Protocol: 5×10^4 cells were seeded per well in a 24-well plate and cultured overnight prior to treating with the compound and/or other agents as indicated for each study. Cells were harvested at 24, 48 and 72 hrs after treatment by trypsin digestion. […] At least three independent analyses were performed for each time point.
To monitor cell growth and viability, cells were seeded in triplicate at 5×10^4 cells in 1 ml of medium in 24-well plates. The drugs were added at the indicated concentrations 24 h after seeding. Cells were harvested by trypsin digestion at 24 h, 48 h and 72 h following drug additions. Cell number and viability were determined by trypan blue exclusion.

recombinant human HDAC 6 = target: T1, recombinant human HDAC 6 (Homo sapiens, UniProt Q9UBN7); test: In vitro HDAC assay with fluorogenic substrate, HDAC 6
T1 sequence (Q9UBN7 1-1215): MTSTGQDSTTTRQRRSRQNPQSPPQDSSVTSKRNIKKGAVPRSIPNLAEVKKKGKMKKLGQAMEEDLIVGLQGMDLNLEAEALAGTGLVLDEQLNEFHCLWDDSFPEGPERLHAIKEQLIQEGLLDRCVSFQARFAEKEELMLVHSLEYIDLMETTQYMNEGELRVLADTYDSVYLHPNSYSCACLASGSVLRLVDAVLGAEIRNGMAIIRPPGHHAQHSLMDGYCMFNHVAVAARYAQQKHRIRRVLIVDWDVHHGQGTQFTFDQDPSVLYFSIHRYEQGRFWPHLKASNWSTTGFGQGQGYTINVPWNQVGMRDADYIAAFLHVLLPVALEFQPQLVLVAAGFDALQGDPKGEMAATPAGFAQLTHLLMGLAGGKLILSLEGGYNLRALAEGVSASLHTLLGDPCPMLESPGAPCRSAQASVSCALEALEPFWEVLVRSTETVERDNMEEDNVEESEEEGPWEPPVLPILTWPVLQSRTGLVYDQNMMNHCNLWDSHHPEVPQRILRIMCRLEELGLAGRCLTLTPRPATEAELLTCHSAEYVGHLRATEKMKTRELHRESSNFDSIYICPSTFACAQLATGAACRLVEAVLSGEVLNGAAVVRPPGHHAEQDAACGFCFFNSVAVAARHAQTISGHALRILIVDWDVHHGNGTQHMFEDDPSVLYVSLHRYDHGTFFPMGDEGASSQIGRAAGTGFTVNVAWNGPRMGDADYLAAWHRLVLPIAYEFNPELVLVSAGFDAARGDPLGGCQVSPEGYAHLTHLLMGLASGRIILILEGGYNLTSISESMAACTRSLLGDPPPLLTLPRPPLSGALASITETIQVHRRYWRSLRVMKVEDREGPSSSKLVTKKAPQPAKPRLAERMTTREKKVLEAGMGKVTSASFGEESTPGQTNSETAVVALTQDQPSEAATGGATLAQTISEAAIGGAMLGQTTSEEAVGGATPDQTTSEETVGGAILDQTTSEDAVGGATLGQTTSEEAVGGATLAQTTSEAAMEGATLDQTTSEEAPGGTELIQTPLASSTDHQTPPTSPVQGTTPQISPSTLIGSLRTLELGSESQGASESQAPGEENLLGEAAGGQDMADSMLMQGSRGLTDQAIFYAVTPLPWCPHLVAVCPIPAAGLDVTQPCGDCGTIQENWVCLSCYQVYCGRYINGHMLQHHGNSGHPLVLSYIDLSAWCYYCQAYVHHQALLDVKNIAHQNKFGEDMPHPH
Protocol: (§1) Inhibition of HDAC 1 and HDAC 6 were analyzed with a fluorogenic substrate according to manufacture's protocol (HDAC assay reagents were purchased from BPS Biosciences, San Diego, Calif.). 50 μl reaction mixture, which contains 1×HDAC assay buffer, 5 units of recombinant human HDAC1 or HDAC 6, 10 μM substrate 3 and 1 μl inhibitor in DMSO, was incubated at 37° C. for 1 hour. […] The fluorescence intensity was measured at excitation of 360 nm and emission of 460 nm with SpectraMax Gemini XS microplate reader (Molecular Devices, Sunny Calif.).

recombinant human HDAC1 = recombinant human HDAC1 (Homo sapiens, UniProt Q13547); test: In vitro HDAC assay with fluorogenic substrate, HDAC 1
Sequence of recombinant human HDAC1 (Q13547 whole entry): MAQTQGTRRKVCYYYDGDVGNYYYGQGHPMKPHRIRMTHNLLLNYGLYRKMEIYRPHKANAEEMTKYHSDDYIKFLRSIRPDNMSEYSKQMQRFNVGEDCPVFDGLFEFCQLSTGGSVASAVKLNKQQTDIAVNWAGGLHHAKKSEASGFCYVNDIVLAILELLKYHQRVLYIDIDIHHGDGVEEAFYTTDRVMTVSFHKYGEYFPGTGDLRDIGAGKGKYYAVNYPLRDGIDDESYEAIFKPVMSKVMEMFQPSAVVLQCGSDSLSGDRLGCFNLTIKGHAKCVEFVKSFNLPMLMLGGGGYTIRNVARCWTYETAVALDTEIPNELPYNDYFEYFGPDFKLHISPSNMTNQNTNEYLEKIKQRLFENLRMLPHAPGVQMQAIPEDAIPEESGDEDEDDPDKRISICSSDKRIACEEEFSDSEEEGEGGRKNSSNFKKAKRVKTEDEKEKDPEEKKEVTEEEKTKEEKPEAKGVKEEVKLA
Protocol: as §1

IC50 (recombinant human HDAC 6): > 100 nM | IC50 (recombinant human HDAC1): > 100 nM
SMILES: O=C(O)CCCCCCC(=O)Nc1ccc([C@H]2O[C@@H](CSc3nc(-c4ccccc4)c(-c4ccccc4)o3)C[C@@H](c3ccc(CO)cc3)O2)cc1 [niltubacin]
accumulation of acetylated histone H3 [1]: did not induce accumulation | accumulation of acetylated tubulin [1]: did not induce the accumulation | effect on cell growth or cell viability (LNCaP cells): did not have a detectable effect
